Each structure is given as a SMILES string.

Data set [1] relates to Lgr5-positive colon CSCs. Description: Transition of Lgr5-positive colon CSCs to the Lgr5-negative state after drug exposure (flow cytometry, immunostaining, qPCR). Format: cell-based, human. Conditions: for Lgr5 expression by IHC (antibody 2L36): adherent condition, 24 hours with drug, then 48 hours without drug; for Lgr5 state of drug-resistant cells: three-day exposure of Lgr5-positive colon CSCs. As for the experimental part: Colon CSCs were incubated with mouse anti-human Lgr5 antibody (2T15E-2) and then with […] rat anti-mouse IgG antibody (Invitrogen) to stain Lgr5. The aldehyde dehydrogenase activity was measured using the AldeFluor Kit (Stemcell Technologies). Mouse cells were discriminated from human colon CSCs by staining with anti-mouse MHC class I antibody (Abcam), and PE- or APC-labeled goat […] antibody (BioLegend). Dead cells were also removed using the 7-AAD Viability Dye (Beckman Coulter).
Total RNAs were isolated using the RNeasy Mini Kit including DNAase treatment (Qiagen). cDNAs were synthesized using the First-Strand cDNA Synthesis Kit (SABiosciences). Quantitative real-time PCR (QRT-PCR) analysis was performed with the SYBR Green/Rox qPCR (SABiosciences) using the Mx3005P Real-Time PCR System (Stratagene). The fold induction value was calculated according to the 2-ΔΔCt method. GAPDH and ACTB were used as a reference. All experiments were performed in triplicate.
For immunofluorescent cytochemistry, cells were fixed with 4% paraformaldehyde and methanol, and incubated with a mouse anti-human E-cadherin antibody (Abcam), rabbit anti-human Snail antibody (Abcam), or rabbit anti-human β-catenin antibody (Sigma)). Then, the cells were visualized using the AlexaFluor 488-labeled goat anti-mouse IgG antibody or goat anti-rabbit IgG antibody. For immunofluorescent cytochemistry, the fixed cells and thin sections derived from paraffin blocks of xenograft tumors were incubated with a mouse anti-human Lgr5 antibody (2U2E-2) or rabbit anti-human Snail antibody (Abcam), rabbit anti-human HLA-DMA antibody (Sigma), rabbit anti-TMEM173 antibody (Abcam), rabbit anti-human ZMAT3 antibody (Abcam), or rabbit anti-human GPR110 antibody (Abcam). After incubation with the primary antibody, Lgr5 protein was detected with a goat anti-mouse antibody conjugated with polymer-HRP (DAKO) and visualized with AlexaFluor 488-labeled tyramide (Invitrogen), while Snail, HLA-DMA, and TMEM173 proteins were detected with a biotinylated goat anti-rabbit antibody (VECTOR) and visualized with AlexaFluor 568-labeled streptavidin (Invitrogen). These cells and samples were also stained with DAPI (Invitrogen). ZMAT3 and GPR110 proteins were detected with a goat anti-rabbit antibody conjugated with polymer HRP (DAKO) and visualized with diaminobenzidine. The cells and samples were stained with Mayer's hematoxylin (Muto Pure Chemicals Co.).
In addition, the present inventors carried out examinations to assess whether Lgr5-negative colon CSCs undergo a transition into an Lgr5-positive state. […] On the other hand, when Lgr5-positive adherent colon CSCs were cultured in an ultra low adherent plate, the present inventors observed that some of the cells halted their growth and formed a spheroid-like structure and that the Lgr5 mRNA level was very low (FIGS. 12 and 33). The transition from the Lgr5-positive to Lgr5-negative state (and the reverse) was also confirmed by observations using a single cell in culture. […] When single Lgr5-negative cells prepared via irinotecan treatment were individually cultured in a multi-well plate in the absence of irinotecan, 19 to 43% of the cells underwent a transition into the Lgr5-positive state within four days (FIG. 47 and Table 5).
Lgr5-positive cells were incubated under an adherent condition in the presence of 5-FU or oxaliplatin for 24 hours, and then cultured in the absence of the drug for 48 hours. The cells were analyzed for the expression of Lgr5 by IHC using an anti-Lgr5 antibody (antibody 2L36). […] Next, Lgr5-negative cells sorted using MoFlo XDP cell sorter and treated with 5-FU or oxaliplatin were cultured for four days in the absence of the drug. The cells were analyzed for Lgr5 expression.
In general terms: A flow cytometer gives signals particle by particle.

The subject of data set [2] is Lgr5-positive colon CSCs. Description: Cell proliferation / chemosensitivity assay (Cell Counting Kit-8). The format is cell-based, human. As for the experimental part:
(§1) Tissues of xenograft were cut with a razor blade in order to prepare single cancer cell suspensions. After the suspensions were incubated at 37° C. for 3 hours in DPBS containing collagenase/dispase (Roche) and DNaseI (Roche), the suspensions were filtered through 40-μm Cell Strainers (BD Biosciences). The cells were suspended in the lysis buffer (BD Biosciences) to remove erythrocytes. The prepared xenograft-derived cells were cultured under 5% CO2 atmosphere at 37° C. in DMEM/F12 (Invitrogen) containing N-2 Supplement (Invitrogen), 20 ng/ml human EGF (Invitrogen), 10 ng/ml human basic fibroblast growth factor (Sigma), 4 μg/ml heparin (Sigma), 4 mg/ml BSA (Invitrogen), 20 μg/ml human insulin zinc solution (Invitrogen), and 2.9 mg/ml glucose (Sigma) (Todaro M, et al. (2007) Cell Stem Cell 1: 389-402). Adherent and floating CSCs were cultured using conventional polystyrene-treated cell culture flasks (BD Biosciences) and Ultra-low attachment cell culture flasks (Corning), respectively.
(§2) Floating and adherent cells were plated at about 100 and 1×10^4 cells/well in 96-well plates, respectively. On days 0 and 3, viable cell counts were determined by the Cell Counting Kit-8 Assay (Doujindo) according to the manufacturer's protocol. Average absorbance on day 0 was taken as 100%. For chemosensitivity assay, floating and adherent cells were plated at about 100 and 1×10^4 cells/well in 96-well plates, respectively. […] After three days of culture in the presence of the agents, the Cell Counting Kit-8 was added to the cells. The average absorbance of cells exposed to DMSO or medium alone was taken as 100%. All experiments were performed in triplicate.
(In general: Tetrazolium assays rely on reduction of a dye to a coloured formazan, in cell work by metabolically active cells.)

The test system of the next data set is Lgr5-negative colon CSCs. The data set is described as above. The format is cell-based, human. Conditions: for proliferation and survival of Lgr5-negative colon CSCs: 10 μg/ml, three days; for resistance of Lgr5-negative CSCs (percentage of viable cells relative to non-treated control): PLR59 and PLR123, cultured three days at each concentration (FIG. 45). As for the experimental part: as §1, §2

The test system of data set [3] is tumors derived from LGR5-positive CSCs (PLR123). Put plainly: Irinotecan treatment of NOG mice bearing tumors derived from Lgr5-positive CSCs. Format: in vivo. As for the experimental part:
Mice bearing tumors derived from LGR5-positive CSCs (PLR123) were treated with irinotecan, and their tumors were observed. Irinotecan or vehicle was administered to mice at days 12, 15, and 18 after tumor grafting. Scale bar represents 25 μm.
FIG. 53 Irinotecan was administered at a dose of 120 mg/kg/day to NOG mice at days 12, 15, and 18 after grafting tumors derived from LGR5-positive CSCs (PLR123). This figure is a graph showing tumor volumes in control mice administered with vehicle (closed diamond) and mice administered with irinotecan (closed square or triangle). Each value represents mean±standard deviation.
FIG. 54 is a graph showing the numbers of Lgr5-positive and HLA-DMA-positive cells in xenograft tumor tissues. Thin sections of tissues were treated with Lgr5 antibody and HLA-DMA antibody, and then the numbers of Lgr5-positive and HLA-DMA-positive cells were counted. Values represent the total numbers of cells counted for respective groups (n=3).
To probe the possibility of in vivo transition to a growth inhibitor-resistant state, irinotecan was administered at the maximum tolerated dose (MTD) (120 mg/kg) into the peritoneal cavities of NOG mice bearing tumors derived from Lgr5-positive CSCs. […] By contrast, in vehicle-treated control mice, about one third of cancer cells were positive for Lgr5 in both ductal and budding areas (FIG. 52). Both Lgr5-positive cells and HLA-DMA-positive and Lgr5-negative cells were positive for EREG, and were identified to be CSCs (FIG. 52). After irinotecan treatment, Lgr5-positive cells appeared again (FIG. 52). Furthermore, xenografts were excised from mice on day 21 after transplantation of irinotecan-treated or non-treated Lgr5-positive cells. Sections from the xenografts were double-stained with an anti-Ki67 antibody and an anti-Lgr5 antibody or an anti-HLA-DMA antibody. The result of double staining for Ki67 and Lgr5 or HLA-DMA, which is a marker for Lgr5-negative cells, also confirmed a correlation between Lgr5 expression and Ki67 staining in xenografts, similarly to the observation using in vitro cultured cells. Specifically, the Lgr5-positive cells were positive for Ki67, while the Lgr5-negative/HLA-DMA-positive cells were negative for Ki67 (FIG. 65).

[4] abbreviates: 120 mg/kg into the peritoneal cavity.

Consider `O=C1[O][Pt]2([NH][C@@H]3CCCC[C@H]3[NH]2)[O]C1=O` [oxaliplatin], for which the “Lgr5 expression by IHC (antibody 2L36)” value in the data set on Lgr5-positive colon CSCs [1] is “most of the Lgr5-positive cells underwent transition into the Lgr5-negative state”.
As for `COc1cc(O)cc(O)c1C(=O)/C=C/c1ccccc1` [cardamonin], the viable cell count with Lgr5-positive colon CSCs [2] (50 μM, three days of culture, Lgr5-positive colon CSCs, relative to DMSO alone) was 70%; in the data set with Lgr5-negative colon CSCs (50 μM, three days of culture, Lgr5-negative colon CSCs, relative to DMSO alone), “about 50%”.
As to `Cc1cc([N+](=O)[O-])ccc1NS(=O)(=O)c1cc(Cl)ccc1Cl` [FH535], in the data set on Lgr5-positive colon CSCs [2] (50 μM, three days of culture), the “proliferation of Lgr5-positive colon CSCs” value is reported as “significantly reduced the proliferation”. For the same compound, the “proliferation of Lgr5-negative colon CSCs” value in the data set with Lgr5-negative colon CSCs (50 μM, three days of culture) was “had no effect on the proliferation”.
With `O=c1[nH]cc(F)c(=O)[nH]1` [5-FU, fluorouracil], in the data set on Lgr5-positive colon CSCs [1], the “Lgr5 expression by IHC (antibody 2L36)” value is on record as “most of the Lgr5-positive cells underwent transition into the Lgr5-negative state” and the “Lgr5 state of drug-resistant cells” value is recorded as “negative for Lgr5”. Also, in the data set with Lgr5-positive colon CSCs [2] (10 μg/ml, three days), the “proliferation of Lgr5-positive colon CSCs” value was “significantly inhibited the proliferation”. Moreover, in the data set with Lgr5-negative colon CSCs, the “proliferation and survival of Lgr5-negative colon CSCs” value was “did not affect the proliferation and survival”; the “resistance of Lgr5-negative CSCs (percentage of viable cells relative to non-treated control)” value is “fully resistant”.
Take `CCc1c2c(nc3ccc(OC(=O)N4CCC(N5CCCCC5)CC4)cc13)-c1cc3c(c(=O)n1C2)COC(=O)[C@]3(O)CC` [irinotecan]: in the data set with Lgr5-positive colon CSCs [1] (Lgr-negative cells after irinotecan treatment (FIG. 43)), the “level of Lgr5 mRNA (quantitative real-time PCR)” value is reported as “almost undetectable”. Also, the “fluorescence representing Lgr5 positivity” value in the data set with Lgr5-positive colon CSCs [1] (PLR123, before vs after irinotecan treatment (FIG. 42)) is recorded as “disappeared after the treatment”. Moreover, the ALDH activity entry in the data set with Lgr5-positive colon CSCs [1] (after irinotecan treatment) is reported as “reduced”. Also, the “Lgr5 state of single Lgr5-positive cells cultured individually” value in the data set on Lgr5-positive colon CSCs [1] (multi-well plate, within three days after irinotecan treatment) is “underwent a transition into the Lgr5-negative state”. Also, in the data set with Lgr5-positive colon CSCs [1], the “Lgr5 state of drug-resistant cells” value is listed as “negative for Lgr5”. In addition, in data set [3] (120 mg/kg (MTD) into the peritoneal cavity, days 12, 15 and 18 after grafting), the tumor growth entry was “inhibited almost completely”. Moreover, in data set [3] (setting [4]), the “Lgr5-positive cells in tumor” value is “dramatic decrease”; the “ductal structures of tumor” value is given as “collapsed extensively”; the “number of Lgr5-negative and HLA-DMA-positive cells in tumor” value is reported as “increased significantly”. In addition, in the data set on Lgr5-positive colon CSCs [2] (10 μg/ml, three days), the “proliferation of Lgr5-positive colon CSCs” value was “significantly inhibited the proliferation”. Also, in the data set on Lgr5-negative colon CSCs, the “proliferation and survival of Lgr5-negative colon CSCs” value was “did not affect the proliferation and survival”; the “resistance of Lgr5-negative CSCs (percentage of viable cells relative to non-treated control)” value is reported as “fully resistant”.
